row,melting point [°C],SMILES
1,72 to 74,COC(=O)c1ccc(Cl)c(C)c1N
2,76 to 78,Clc1ccc(CC2(c3cccnc3)OCCO2)c(Cl)c1
3,137 to 138,COc1cccc(-c2c(Cl)c(CCl)nc3sc4c(c23)CCN(Cc2ccccc2)C4)c1OC
4,115 to 130,Cc1cccc(S(=O)(=O)OS(=O)(=O)c2cccc(C)c2C)c1C
5,170 to 172,CC(NC(=O)C=Cc1ccc(Cl)cc1)c1ccc(NS(C)(=O)=O)c(F)c1 (stereo not given)
6,114 to 115,CNC(=O)c1ccc(C(F)(F)F)c(N)c1
7,126 to 129,Cc1cccc2ncc(C(=O)NC(C)(C)CC(C)(C)C)c(=O)n12
8,151 to 152,CCCc1nn(C)c2c(=O)[nH]c(-c3sccc3OCC)nc12
9,177 to 178,Cc1cccc(C)c1CNc1cc(C(=O)N(C)CCO)cc2c1nc(C)n2C
10,167 to 168,CC(C)n1nc(-c2c(-c3ccccc3)nc(N)nc2N(C)Cc2ccccc2)ccc1=O
11,154 to 156,CC(C)[C@H](NC(=O)N(C)Cc1cscn1)C(=O)N[C@@H](Cc1ccccc1)C[C@H](O)[C@H](Cc1ccccc1)NC(=O)[C@@H](NC(=O)N(C)Cc1cscn1)C(C)C
12,188 to 190,COc1ccccc1N1CCN(CCn2cnc3sc(C(=O)N(C)C)c(C)c3c2=O)CC1
13,87 to 88,O=S(=O)(Nc1ccc(Cl)cc1C(=NOCc1ccc(Cl)c(Cl)c1)c1ccccc1)C(F)(F)F
14,175 to 176,Cc1cc(C(O)(C(F)(F)F)C(F)(F)F)cc(C)c1NCCC(=O)O
15,81 to 82,COc1ccc(C2=NC(C)(C)CO2)c(Cc2ccccc2)c1OC
16,295 to 302,O=C(O)c1ccc(-c2ccc(C(=O)O)c(C(=O)O)c2)cc1C(=O)O

row,melting point [°C],SMILES
1,169 to 171,CON=C(Cn1c(=O)ccc2ccccc21)c1ccc(N2CCCC2)cc1
2,129 to 132,OCCOc1cnccc1CCCOc1cccnc1Oc1ccccc1
3,113 to 114,Brc1ccc2ccc3ccccc3c2n1
4,140 to 145,CS(=O)(=O)c1ccc(C(=O)Nc2ccc(Cl)c(-c3ccc(OCCCCCCC(=O)NO)cn3)c2)c(Cl)c1
5,91 to 94,CC(C)(C)C(=O)Oc1cc2c(s1)CCN(C(C(=O)C1CC1)c1ccccc1F)C2 (stereo not given)
6,86,OC(CCSC(=S)Nc1ccc(Cl)cn1)c1ccc(F)cc1 (stereo not given)
7,263 to 265,CC(C)C(NS(=O)(=O)c1ccc(-c2ccc(NC(=O)c3cc4cc(Br)ccc4o3)cc2)cc1)C(=O)O (stereo not given)
8,170 to 171,COC(=O)C[C@H]1S[C@H](c2cccc(OC)c2OC)c2cc(Cl)ccc2N(CC(C)(C)C)C1=O
9,228 to 230,O=c1[nH]c(N2CCOCC2)nc2c1C=CCC2
10,140 to 141,COC(=O)C1=C(C(F)F)NC(C)=C(C(=O)OC(C)C)C1c1cccc([N+](=O)[O-])c1 (stereo not given)
11,109 to 110,CCOP(=O)(OCC)C1(P(=O)(OCC)OCC)CC(C(=O)C(C)c2ccc(-c3ccccc3)c(F)c2)=NN1 (stereo not given)
12,74 to 77,C=CC(C)(O)CN1CCC2(CC1)CSC1=C(O2)c2ccccc2C(=O)C1=O (stereo not given)
13,50 to 52,O=C(C=Cc1ccco1)CCCCCl
14,142 to 143,CS(=O)(=O)c1ccc(-c2cnn(-c3cccc(Cl)c3)c(=O)c2Cc2cccc(F)c2)cc1
15,126 to 130,COc1ccc2ccc(O)c(C3NCCc4ccccc43)c2c1 (stereo not given)

# Continued, compound first:
row,SMILES,melting point [°C]
1,Cc1cccc(-c2nc(NC(=O)Nc3ccccc3)sc2-c2ccnc(C)n2)c1,141 to 142
2,COc1ccc2ccccc2c1CCNC(C)=O,139
3,Cc1nc(N)c2nc(CNC(=O)C3CC3)n(CC(C)C)c2c1C,182 to 184
4,Cc1cc(-c2oncc2CCl)ccc1Cl,84 to 85
5,O=c1ncc(Br)cn1Cc1cccs1,188 to 190
6,N#Cc1cnn2c(C(F)(F)F)cc(-c3ccncc3)nc12,233
7,CCOC(=O)N1CCC(=C2c3sccc3C=Cn3ccnc32)CC1,176
8,COC(=O)Cn1ccc2ccc(-c3csc(-c4ccccc4)n3)cc21,83
9,CCCn1c(=O)cc(N)n(Cc2ccccc2)c1=O,189 to 192
10,OC1c2ccc(Cl)cc2SC1Cn1ccnc1 (stereo not given),164 to 165
11,CC[C@@]1(C)OC(=O)C(c2ccc(F)c(F)c2)=C1c1ccc(S(C)(=O)=O)cc1,144
12,OC(C=Cc1ccccc1)Cn1ccnc1 (stereo not given),108 to 110
13,CC(C)(C)n1ncc(C(=O)c2ccc(S(C)(=O)=O)c(-c3ccccc3)c2Cl)c1O,262 to 264
14,CCCCCCCCCCOC(=O)C1=C(C)OC(N)=C(C(=O)OCC)C1c1cccc([N+](=O)[O-])c1 (stereo not given),100
15,N#CCC=C1c2ccccc2C=Cc2ccccc21,95 to 101
16,CCCc1cnn2c(O)cc(CC)nc12,279 to 281
17,O=C1Cc2cccc(Sc3ccccc3Cl)c2N1,178 to 180
18,CCS(=O)(=O)c1ccc(C(=O)O)c(Cl)c1O,188 to 192
19,CCCn1c(CCOC)nc2c(N)nc3cc(OCCCS(C)(=O)=O)ccc3c21,170 to 171
20,O=C1CNc2ncc(I)cc2N1Cc1cc(C(F)(F)F)ccc1Cl,252 to 253
21,CC(=O)OC1CCC2(C)C(=CCC3C2CCC2(C)C(C(C)CCCC(C)(C)C)CCC32)C1 (stereo not given),152 to 153
22,S=C1NCCCN1c1ccccc1,211 to 212
23,CC(C)(C)N(NC(=O)c1ccccn1)C(=O)c1ccccc1Br,179 to 180

row,SMILES,melting point [°C]
1,COc1ccc(-c2cc3ccccc3[nH]2)cc1NC(=S)Nc1cc(Cl)cc(Cl)c1,199 to 201
2,CCCCCCCCCCCCCCc1onc(C(=O)NN)c1O,130
3,CCCn1nc(-c2cc(C(C)(C)C)c(O)c(C(C)(C)C)c2)c2cccnc21,97 to 98
4,COC(=O)C(C)NC(=O)NS(=O)(=O)C=Cc1ccccc1 (stereo not given),138 to 140
5,CC(C)(C)CCCCCCCCCCCC(=O)O,37 to 39
6,COC(=O)C(=O)c1cc(OC)c(OCCOc2ccc3ccccc3c2)c(OC)c1,69 to 71
7,Cc1ccc2ccccc2c1COc1ccc(C(=O)NC[C@@H](C(=O)NO)N2CCN(S(C)(=O)=O)CC2)cc1,155
8,Cc1ccccc1-c1ncc(NC(=O)OCc2ccccc2)c(=O)n1CC(=O)NC(Cc1ccccc1)C(=O)C(F)(F)F (stereo not given),127 to 129
9,CN1Cc2c(C#N)ccc3scc(c23)S1(=O)=O,238
10,CCCCc1nc(C(C)(O)CC)c(C#N)n1C(c1ccccc1)(c1ccccc1)c1ccccc1 (stereo not given),90 to 93
11,CCOC(=O)c1cnn2c(-c3cccc(NC(=O)C4CCC4)c3)ccnc12,123 to 125
12,Brc1cccc2c1Sc1c(Br)cccc1S2,176 to 178
13,CC(C(=O)O)c1cc(Cl)c(N)cc1Cl (stereo not given),140 to 141
14,CC(C)(C)c1ccc(C2(Cl)CN(C(c3ccccc3)c3ccccc3)C2)cc1,145
15,COc1ccc(C)cc1NC(=O)Nc1ccc(N2CCN(C(=O)Oc3ccc(CCO)cc3Cl)CC2)cc1,189 to 190
16,C[C@@H]1N=C(c2ccccc2)c2cc(N)ccc2N(C)C1=O,219 to 221
17,COCc1cc(-c2ccccc2N)[nH]n1,74 to 78
18,C1CCC(N2CCCC2)C2NCCCC2C1 (stereo not given),30 to 35
19,N#Cc1ccc(-c2ccc(-c3nc4cc(C#N)ccc4[nH]3)cc2)c(OCc2ccccc2)c1,205 to 208
20,O=C(CC1(c2ccccc2)C(=O)Oc2ccc(Cl)cc21)N1CCN(c2ccc(C(F)(F)F)cn2)CC1 (stereo not given),228
21,CCN(CC)c1nc(NC(N)=NOC)nc(OC)n1,112
22,CCOC(Nc1ccccc1)(OCC)C1(Cl)C=CN=C(C(=O)c2ccccc2)C1 (stereo not given),133 to 134
23,COCc1ncccc1CN(CCn1ccc2oc(C)cc2c1=O)Cc1ccc2c(c1)NC(=O)C(C)(C)C(=O)N2CC1CC1,189 to 191

row,SMILES,melting point [°C]
1,CCOC(=O)c1ncc2[nH]c3ccc(Br)cc3c2c1COC,207 to 209
2,O=C1c2cc([N+](=O)[O-])ccc2CCn2cccc21,190 to 192
3,CS(=O)(=O)Nc1cc2c(cc1Oc1ccccc1)C(=O)C(Sc1ccccc1)C2 (stereo not given),86
4,N#CC(NC(=O)C(F)(F)C(F)(F)C(F)(F)F)c1ccc(Cl)cc1 (stereo not given),93 to 95
5,CCCc1c(OCCCCCOc2c(C(C)=O)ccc(OCC(=O)O)c2CCC)ccc(C(C)=O)c1O,86 to 89
6,C#CCOc1nc(-n2ccnc2)c(I)c(C(F)(F)F)n1,128 to 129
7,c1cc(-c2ccnc3nc(N4CCNCC4)nn23)ccn1,147 to 149
8,CC#CCOc1cc(-n2nnn(CCC)c2=O)c(Cl)cc1Cl,58 to 60
9,Cc1noc(NS(=O)(=O)c2ccccc2Br)c1Br,84 to 86
10,CC(C)(C)c1ccc(-c2ccc3c(c2)C=C(C(=O)O)CCO3)cc1,259 to 261
11,CCCNC(=O)C1(CCCCN2CCC(N3Cc4ccccc4C3=O)CC2)CCc2ccccc21 (stereo not given),61 to 63
12,O=CC=C(c1ccc(F)cc1)c1ccc(F)cc1,56 to 58
13,CC(=O)OCc1nc(C(CN(C(C)=O)C(C)(C)C)OC(C)=O)ccc1OC(C)=O (stereo not given),60 to 64
14,CS(=O)(=O)Nc1ccc([N+](=O)[O-])cc1SC1CCCCC1,140
15,Fc1ccccc1C1CCC(=S)Nc2ccc(Cl)cc21 (stereo not given),190
16,C=CCN1CCn2c1nc1ccc(Cl)cc1c2=O,91 to 93
17,CCOC1=NS(=O)(=O)N(C)C(Cl)=N1,75 to 80
18,CCCCCCCCCCCCCCCCCCOc1c(OCC(CC)CCCC)ccc2c1C(=O)c1ccccc1C2=O (stereo not given),61 to 68
19,Cc1ccc(O)c(NC(=O)c2cc(C)sc2Br)c1,173 to 175
20,Cc1c(C(=O)O)cnn1-c1nc(-c2ccc(C(F)(F)F)cc2)cs1,273 to 274
21,Cc1cc(Br)cc(C)c1N[N+](=O)[O-],129 to 131
22,O=C1CN(Cc2ccccn2)CC(=O)N1CCCN1CCN(c2ccc(F)cc2)CC1,90
23,CCS(=O)(=O)CCC(=O)NNC(=O)N1Cc2ccccc2Oc2c(Cl)cccc21,209 to 211

# From a melting point compilation (Tetko et al.; mined from patent text by program, amines drawn as free bases though some values may be those of a salt)
